Data as given in patent US8080535B2, “Hyaluronic acid nutritional supplements and methods of using the same” (Leneau Holdings, LLC, priority 2001, dated 2011).

Tests used:
[1] = system: human patients suffering pain and discomfort associated with rheumatoid arthritis; assay: Oral ingestion of hyaluronic acid by patients afflicted with rheumatoid arthritis, subjective pain score 0 to 10; assay type: in vivo; details: scale 0 to 10; about 1 mg oral solution for 30 days; average prior to the study 8.47; 15 of seventeen patients responded
Procedure: Another study involving seventeen human patients suffering pain and discomfort associated with rheumatoid arthritis was undertaken. Each patient received about 1 mg of an oral hyaluronic acid solution for a period of 30 days. Each patient was asked to evaluate his or her subjective pain feeling and report the score on a scale of 0 to 10, wherein 0 means no pain and/or stiffness whatsoever and 10 means worst imaginable pain and/or stiffness. Prior to the start of the study, the patients reported as follows: […]

[2] = system: patients suffering from osteoarthritis; assay: Oral ingestion of hyaluronic acid by patients suffering from osteoarthritis, subjective pain feeling; assay type: in vivo, human; details: of sixty-seven osteoarthritis patients; 1-4 mg oral 1 to 4 times a day
Procedure: A study involving sixty-seven patients suffering from osteoarthritis was undertaken to determine the effectiveness of oral ingestion of hyaluronic acid. Each patient received 1-4 mg of hyaluronic acid by oral ingestion administration 1 to 4 times a day over periods ranging from about […], during which period the patients' subjective pain feeling was reported. […] Fourteen patients reported no change in the amount of pain they felt.

[3] = system: human patients suffering pain and discomfort associated with fibromyalgia; assay: Oral ingestion of hyaluronic acid by patients afflicted with fibromyalgia, subjective pain feeling; assay type: in vivo
Procedure: Another study involving thirty-five human patients suffering pain and discomfort associated with fibromyalgia was undertaken to evaluate the effectiveness of oral ingestion of hyaluronic acid. Each patient received about 1 to about 6 mg of hyaluronic acid by oral ingestion administration of concentrate diluted into beverages or food. Over a treatment period of about 1 to about 14 months, the patients' subjective pain feeling was reported. Twenty-one patients reported no pain after hyaluronic acid therapy. Six patients (17.1%) reported some (60%) degree of pain relief. Eight patients reported no change in the amount of pain they felt.

[4] = of thirty-five fibromyalgia patients, about 1 to about 6 mg oral, about 1 to about 14 months

Substance: hyaluronic acid
- average subjective pain and/or stiffness score at completion of the 30-day study [1]: 3.47
- patients reported no change in the amount of pain [2]: Fourteen
- patients reported no pain and increased range of motion [2]: Twenty-nine
- patients reported no pain and increased range of motion (percent of patients) [2]: 43.3%
- patients reported some degree of pain relief and some increased range of motion [2]: Twenty-four
- patients reported some degree of pain relief and some increased range of motion (percent of patients) [2]: 35.8%
- patients reported no change in the amount of pain [3, 4]: Eight
- patients reported no pain after hyaluronic acid therapy [3, 4]: Twenty-one
- patients reported some degree of pain relief [3, 4]: Six
- patients reported some degree of pain relief (percent of patients) [3, 4]: 17.1%
- some (60%) degree of pain relief ([3]; printed in brackets in the sentence on the six patients with some pain relief): 60%
